Source: US11458132B2, “Quinolin-2(1H)-one inhibitors of Late SV40 Factor” (TRUSTEES OF BOSTON UNIVERSITY, priority 2020, dated 2022)

Legend:
[1] = system: HT-29 cells; test: Allogeneic HT-29 xenograft model in athymic mice; type: in vivo
Text: (§1) Syngeneic and allogeneic xenograft models: We used 8-12 weeks-old athymic female mice for the allogeneic xenograft model and C57BL/6 mice for a syngeneic xenograft model, as described previously^26,27. All the mice were obtained from The Jackson Laboratory and housed at Boston University Medical Center based on the approval from the Institutional Animal Care and Use Committee. Each mouse was implanted subcutaneously on the dorsal surface and was monitored for tumor growth as measured with a VWR Digital Caliper. The tumor volume was calculated twice a week using the equation: length×width×height.
(§2) The mice were randomly separated into two groups once tumor volumes reached 100 mm^3. The FQI2-34 was suspended in a mixture of ethanol and DMSO. The mixture was agitated until the compound had completely dissolved. This solution was further diluted in 20% PEG 400 and water to give a final concentration of 2 mg/ml. FQI2-34 or vehicle was injected intraperitoneally daily at 5 mg/kg for 5 days, followed by a break for 2 days. After 21 days, both groups of mice were sacrificed, and the tumors were harvested.
(§3) Cell culture and other reagents: HT-29 cells were obtained from ATCC and grown in the Roswell Park Memorial Institute (RPMI) medium supplemented with 10% FBS and penicillin and streptomycin. Cells were injected with the growth-factor poor Matrigel (Millipore, catalogue number DLW354263) using a 23-gauge needle for a total volume of 200 microliters. The MC38 cell line was obtained from ATCC and grown in RPMI medium supplemented with 10% FBS and penicillin and streptomycin.
IHC was performed on the paraffin-embedded tumors as described previously^26-28. The manufacturer's protocol was used along with reagents from the Abcam Mouse and Rabbit Specific HRP/DAB IHC Detection Kit—Micro-polymer (ab236466). Primary antibodies and their dilutions used to detect the respective proteins were: Axin2 (Abcam, #ab32197, 1:100), β-catenin (BD Biosciences, #610154, 1:100), LSF (BD Biosciences, #610818, 1:100), SOX9 (Abcam, #ab185230, 1:100), Ki-67 (Cell Signaling, #8D5, 1:100). […]
(§4) All images and quantification were performed using the Nikon Eclipse TE2000 Inverted Microscope with the color camera at the Boston University School of Medicine (BUSM) Imaging Core. Random high-power field (hpf) images of every tumor sample were obtained. For quantification the signal was converted to grayscale, and the number and intensity of pixels were analyzed as integrated density by using Fiji. The integrated density of all the images was normalized to its area. The images were processed in ImageJ (National Institutes of Health, Bethesda, Md.) to quantitate the expression of SOX-9, AXIN-2, and LSF. Regions of interest were drawn and the expression was measured using integrated density normalized to the surface area. The average normalized integrated image densities from multiple hpfs were used to perform the correlational analysis between expression levels of pairs of proteins.

[2] = system: MC38 cells; test: Syngeneic MC38 xenograft model in C57BL/6 mice; type: in vivo
Text: as §1, §2, §3
IHC was performed on the paraffin-embedded tumors as described previously^26-28. The manufacturer's protocol was used along with reagents from the Abcam Mouse and Rabbit Specific HRP/DAB IHC Detection Kit—Micro-polymer (ab236466). Primary antibodies and their dilutions used to detect the respective proteins were: Axin2 (Abcam, #ab32197, 1:100), β-catenin (BD Biosciences, #610154, 1:100), LSF (BD Biosciences, #610818, 1:100), SOX9 (Abcam, #ab185230, 1:100), Ki-67 (Cell Signaling, #8D5, 1:100).
as §4

[3] = Plasma protein binding (PPB), human; type: in vitro ADME
[4] = Plasma protein binding (PPB), mouse; type: in vitro ADME
[5] = system: colorectal cancer tumor; test: Colorectal cancer tumor size and tumor tissue, FIGS. 22-24; type: in vivo, mouse; conditions: 15 mg/kg treatment compared with the other concentration
[6] = xenografts, immunohistochemistry

- fraction unbound [3]: 0.1
- fraction unbound [4]: 0.07
Compound: CCOc1cc(N(C)C)ccc1-c1cc(=O)[nH]c2cc3c(cc12)OCO3 [FQI2-34, 8-(4-(dimethylamino)-2-ethoxyphenyl)-[1,3]dioxolo[4,5-g]quinolin-6(5H)-one]
- tumor volumes compared to controls ([1]; day 9, day 12 and day 17): significantly lower tumor volumes
- histopathological analysis of tumors (H & E) ([1]; day 21): lower tumor mass organized in luminal regions interspersed within the interstitium
- tumor volume, treated versus control ([1]; day 21): 2 times
- tumor volume ([1]; day 21, 5 mg/kg intraperitoneally daily for 5 days each week): 1120±193 mm^3
- AXIN2, CCND1 and SOX9 by quantitative RT-PCR ([1]; xenograft lysates at end of treatment): significantly downregulated
- increase in TUNEL-positive cells ([1]; xenografts): 1.8 fold
- CRC cells with nuclear β-catenin, lower than control [1, 6]: 4 fold
- downregulation of Ki-67 [1, 6]: 4.2 fold
- reduction in AXIN2 (integrated density) [1, 6]: 5 fold
- reduction in SOX9 (integrated density) [1, 6]: 3.2 fold
- tumor volumes, lower than controls ([2]; day 14 and day 21): ~2 fold
- CRC mass on H&E stain ([2]; xenografts): substantial reduction in CRC mass
- Ki-67 levels [2, 6]: suppressed
- reduction in AXIN2 expression levels [2, 6]: ~2 fold
- reduction in SOX9 expression levels [2, 6]: ~2 fold
- reduction in number of cells with nuclear β-catenin [2, 6]: 2.3 fold
- effectiveness on colorectal cancer tumor size versus time [5]: not as effective
